The source of these data is PMC5138836, “Antiproliferative activities of Amaryllidaceae alkaloids from Lycoris radiata targeting DNA topoisomerase I” (Scientific Reports, 2016).

For this experiment, the target named is T1, DNA topoisomerase I (Top I) (Escherichia coli, UniProt P06612).
T1 construct: gene topA
Kind of experiment: in vitro Top I inhibition assay (absorbance, plate reader); also affinity ultrafiltration HPLC-MS, EF […]. It is filed as biochemical.

T1 sequence (P06612 whole entry): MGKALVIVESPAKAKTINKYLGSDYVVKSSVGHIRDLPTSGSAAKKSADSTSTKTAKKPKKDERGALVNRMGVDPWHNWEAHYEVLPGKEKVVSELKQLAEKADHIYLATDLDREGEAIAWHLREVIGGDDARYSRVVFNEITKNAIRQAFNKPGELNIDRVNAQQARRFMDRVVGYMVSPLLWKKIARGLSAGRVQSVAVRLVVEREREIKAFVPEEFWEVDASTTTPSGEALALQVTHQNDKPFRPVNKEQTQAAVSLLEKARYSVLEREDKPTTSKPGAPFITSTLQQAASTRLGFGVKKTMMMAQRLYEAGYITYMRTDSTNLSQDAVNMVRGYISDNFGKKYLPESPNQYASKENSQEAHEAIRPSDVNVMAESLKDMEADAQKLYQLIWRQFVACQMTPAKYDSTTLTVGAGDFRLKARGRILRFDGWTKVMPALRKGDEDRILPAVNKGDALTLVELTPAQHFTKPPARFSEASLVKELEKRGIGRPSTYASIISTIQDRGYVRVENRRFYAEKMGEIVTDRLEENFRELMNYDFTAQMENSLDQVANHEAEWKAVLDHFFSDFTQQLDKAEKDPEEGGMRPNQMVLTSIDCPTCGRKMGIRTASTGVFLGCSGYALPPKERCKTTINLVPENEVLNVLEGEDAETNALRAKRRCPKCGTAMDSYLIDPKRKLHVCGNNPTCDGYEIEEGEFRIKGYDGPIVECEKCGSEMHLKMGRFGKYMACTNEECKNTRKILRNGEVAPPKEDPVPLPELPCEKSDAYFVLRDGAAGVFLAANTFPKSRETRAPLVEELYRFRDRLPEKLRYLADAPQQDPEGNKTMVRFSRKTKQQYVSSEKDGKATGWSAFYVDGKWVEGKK

In turn, `CN1CCC2=C[C@H](O)[C@H]3OC(=O)c4cc5c(cc4[C@H]3[C@@H]21)OCO5` [compound 5, hippeastrine] showed an IC50 of 23 µM.

Usually IC50 stands for the point on the concentration scale where inhibition reaches its midpoint.
